Source: patent US4946858A, “Novel spirosuccinimides as aldose reductase inhibitors and antihyperglycemic agents” (American Home Products Corporation, priority 1989, dated 1990)
Like-named read-outs stand apart in the source and are kept apart here.

Assays:
aldose reductase = target: T1, aldose reductase (Bos taurus, UniProt P16116); assay: In vitro inhibition of aldose reductase (modified Hayman and Kinoshita procedure, enzyme from bovine lens); assay type: biochemical; settings: read-out: % Inhibition in Vitro
T1 construct: preparation of the enzyme from bovine lens; from tissue; host or cells: bovine lens
Source text: In the present case the procedure of Hayman and Kinoshita was modified in that the final chromatography step was omitted in the preparation of the enzyme from bovine lens.

galactosemic rats = assay: Lowering of galactitol (dulcitol) accumulation in tissues of galactosemic rats; assay type: in vivo, rat (Sprague-Dawley); settings: for % Lowering of dulcitol accumulation In Vivo, % D (diaphragm) / % Lowering of dulcitol accumulation In Vivo, % L (lens) / % Lowering of dulcitol accumulation In Vivo, % N (sciatic nerve): 4 days, vs untreated galactosemic rats
Source text: The aldose reductase inhibiting property of the compounds of this invention and the utilization of the compounds in preventing, diminishing and alleviating diabetic complications by lowering polyol accumulation were also demonstrable in experiments using galactosemic rats, see Dvornik et al, Science, 182, 1146 (1973). Such experiments are exemplified hereinbelow after the listing of the following general comments pertaining to these experiments:
(a) Four or more groups of six male rats, 50-70 g, Sprague-Dawley strain, were used. The first group, the control group, was fed a mixture of laboratory chow (rodent Laboratory Chow, Purina) and glucose at 20% (w/w %) concentration. The untreated galactosemic group and the drug-treated groups were fed a similar diet in which galactose is substituted for glucose. The test compound was either admixed to the diet or administered by gavage. In experiments involving compound administration in the diet, the average dose administered was calculated from the actual food intake of the animals in each group. The concentration of galactose in the diet of the treated groups was the same as that for the untreated galactosemic groups.
(b) After four days, the amimals were killed by decapitation. The eyeballs were removed and punctured with a razor blade; the freed lenses were rolled gently on filter paper and weighed. The sciatic nerves were dissected as completely as possible and weighed. Both tissues when frozen can be kept up to two weeks before being analyzed for galactitol.
(c) The polyol determination was performed by a modification of the procedure of M. Kraml and L. Cosyns, Clin. Biochem., 2, 373 (1969). Only two minor reagent changes were made: (a) the rinsing mixture was an aqueous 5% (w/v) trichloroacetic acid solution and (b) the stock solution was prepared by dissolving 25 mg of dulcitol in 100 mL of an aqueous trichloroacetic acid solution. [N.B.: For each experiment the average value found in the tissue from rats fed the glucose diet was subtracted from the individual values found in the corresponding tissue in galactose-fed rats to obtain the amount of polyol accumulated.]
The figures under L, N, and D represent the percentage decrease of galactitol accumulation in the tissues of the lens, sciatic nerve, and diaphragm, respectively, for treated rats as compared to untreated rats.

O=C1CC2(C(=O)N1)c1cc(Cl)ccc1C(=O)N2Cc1ccc(Br)cc1F (stereo not drawn) [Example 121]
inhibition at 10 µM (aldose reductase; 10^-5 M): 85% | inhibition at 1 µM (aldose reductase; 10^-6 M): 70%

O=C1CC2(C(=O)N1)c1ccccc1S(=O)(=O)N2Cc1ccc2ccccc2c1Br (stereo not drawn) [Example 112]
inhibition at 10 µM (aldose reductase; 10^-5 M): 59% | inhibition at 1 µM (aldose reductase; 10^-6 M): 25%

CN1C(=O)c2cc(-c3ccccc3)ccc2C12CC(=O)NC2=O (stereo not drawn) [Example 136]
inhibition at 10 µM (aldose reductase; 10^-5 M): 90% | inhibition at 1 µM (aldose reductase; 10^-6 M): 81% | % Lowering of dulcitol accumulation In Vivo, % D (diaphragm) (galactosemic rats; 3 mg/kg): 29% | % Lowering of dulcitol accumulation In Vivo, % D (diaphragm) (galactosemic rats; 6 mg/kg): 43% | % Lowering of dulcitol accumulation In Vivo, % L (lens) (galactosemic rats; 6 mg/kg): 13% | % Lowering of dulcitol accumulation In Vivo, % N (sciatic nerve) (galactosemic rats; 6 mg/kg, sciatic nerve): 27% | % Lowering of dulcitol accumulation In Vivo, % D (diaphragm) (galactosemic rats; 9 mg/kg): 55% | % Lowering of dulcitol accumulation In Vivo, % L (lens) (galactosemic rats; 9 mg/kg): 6% | % Lowering of dulcitol accumulation In Vivo, % N (sciatic nerve) (galactosemic rats; 9 mg/kg, sciatic nerve): 34%

CN1C(=O)c2cc(Cl)ccc2C12CC(=O)NC2=O (stereo not drawn) [Example 120, 5-chloro-2-methylspiro[1H-isoindole-1,3'-pyrrolidine]-2',3,5'(2H)-trione]
inhibition at 10 µM (aldose reductase; 10^-5 M): 88% | inhibition at 1 µM (aldose reductase; 10^-6 M): 72% | % Lowering of dulcitol accumulation In Vivo, % N (sciatic nerve) (galactosemic rats; 3 mg/kg, sciatic nerve): 21% | % Lowering of dulcitol accumulation In Vivo, % D (diaphragm) (galactosemic rats; 81 mg/kg): 80% | % Lowering of dulcitol accumulation In Vivo, % L (lens) (galactosemic rats; 81 mg/kg): 54% | % Lowering of dulcitol accumulation In Vivo, % N (sciatic nerve) (galactosemic rats; 81 mg/kg, sciatic nerve): 77%

CN1C(=O)c2ccccc2C12CC(=O)NC2=O (stereo not drawn) [Example 117]
inhibition at 1 µM (aldose reductase; 10^-6 M): 45%

CN1C(=O)c2ccc(F)cc2C12CC(=O)NC2=O (stereo not drawn) [Example 123]
inhibition at 1 µM (aldose reductase; 10^-6 M): 74% | inhibition at 10 µM (aldose reductase): 93%

COc1ccc2c(c1)C(=O)N(C)C21CC(=O)NC1=O (stereo not drawn) [Example 129]
inhibition at 10 µM (aldose reductase; 10^-5 M): 83% | inhibition at 1 µM (aldose reductase; 10^-6 M): 56%

Cc1ccc2c(c1)C(=O)N(C)C21CC(=O)NC1=O (stereo not drawn) [Example 133]
inhibition at 10 µM (aldose reductase; 10^-5 M): 89% | inhibition at 1 µM (aldose reductase; 10^-6 M): 61%

CN1C(=O)c2ccc([N+](=O)[O-])cc2C12CC(=O)NC2=O (stereo not drawn) [Example 132]
inhibition at 10 µM (aldose reductase; 10^-5 M): 91% | inhibition at 1 µM (aldose reductase; 10^-6 M): 77%

CCCN1C(=O)c2cc(Cl)c(Cl)cc2C12CC(=O)NC2=O (stereo not drawn) [Example 131]
inhibition at 10 µM (aldose reductase; 10^-5 M): 49% | inhibition at 1 µM (aldose reductase; 10^-6 M): 12%

O=C1CC2(C(=O)N1)c1ccccc1S(=O)(=O)N2Cc1ccccc1 (stereo not drawn) [Example 103]
inhibition at 10 µM (aldose reductase; 10^-5 M): 45% | inhibition at 1 µM (aldose reductase; 10^-6 M): 5%

O=C1CC2(C(=O)N1)c1ccccc1S(=O)(=O)N2Cc1ccc2ccccc2c1 (stereo not drawn) [Example 113]
inhibition at 10 µM (aldose reductase; 10^-5 M): 57% | inhibition at 1 µM (aldose reductase; 10^-6 M): 20%

CN1C(=O)c2ccc(Cl)cc2C12CC(=O)NC2=O (stereo not drawn) [Example 102, 6-Chloro-2-methylspiro[1H-isoindole-1,3'-pyrrolidine]-2',3,5'(2H)-trione]
inhibition at 10 µM (aldose reductase; 10^-5 M): 91% | inhibition at 1 µM (aldose reductase; 10^-6 M): 80% | % Lowering of dulcitol accumulation In Vivo, % D (diaphragm) (galactosemic rats; 3 mg/kg): 43% | % Lowering of dulcitol accumulation In Vivo, % L (lens) (galactosemic rats; 3 mg/kg): 9% | % Lowering of dulcitol accumulation In Vivo, % N (sciatic nerve) (galactosemic rats; 3 mg/kg, sciatic nerve): 38% | comparison with sorbinil and tolrestat in the sciatic nerve (galactosemic rats; 3 mg/kg/day, sciatic nerve): comparable results to sorbinil at 4 mg/kg/day and tolrestat at 3 mg/kg/day in the sciatic nerve | % Lowering of dulcitol accumulation In Vivo, % D (diaphragm) (galactosemic rats; 25 mg/kg): 81% | % Lowering of dulcitol accumulation In Vivo, % L (lens) (galactosemic rats; 25 mg/kg): 51% | % Lowering of dulcitol accumulation In Vivo, % N (sciatic nerve) (galactosemic rats; 25 mg/kg, sciatic nerve): 84%

CCN1C(=O)c2ccc(Cl)cc2C12CC(=O)NC2=O (stereo not drawn) [Example 128]
inhibition at 10 µM (aldose reductase; 10^-5 M): 78% | inhibition at 1 µM (aldose reductase; 10^-6 M): 37%

CN1C(=O)c2cc3ccccc3cc2C12CC(=O)NC2=O (stereo not drawn) [Example 124, 2-methylspiro[1H-benz[f]isoindole-1,3'-pyrrolidine]-2',3,5'(2H)-trione]
inhibition at 10 µM (aldose reductase; 10^-5 M): 95% | inhibition at 1 µM (aldose reductase; 10^-6 M): 82% | % Lowering of dulcitol accumulation In Vivo, % D (diaphragm) (galactosemic rats; 10 mg/kg): 59% | % Lowering of dulcitol accumulation In Vivo, % L (lens) (galactosemic rats; 10 mg/kg): 14% | % Lowering of dulcitol accumulation In Vivo, % N (sciatic nerve) (galactosemic rats; 10 mg/kg, sciatic nerve): 47%

CN1C(=O)c2cccc(Cl)c2C12CC(=O)NC2=O (stereo not drawn) [Example 125]
inhibition at 10 µM (aldose reductase; 10^-5 M): 88% | inhibition at 1 µM (aldose reductase; 10^-6 M): 57% | % Lowering of dulcitol accumulation In Vivo, % D (diaphragm) (galactosemic rats; 3 mg/kg): 23% | % Lowering of dulcitol accumulation In Vivo, % D (diaphragm) (galactosemic rats; 6 mg/kg): 37% | % Lowering of dulcitol accumulation In Vivo, % L (lens) (galactosemic rats; 6 mg/kg): 7% | % Lowering of dulcitol accumulation In Vivo, % N (sciatic nerve) (galactosemic rats; 6 mg/kg, sciatic nerve): 21% | % Lowering of dulcitol accumulation In Vivo, % D (diaphragm) (galactosemic rats; 10 mg/kg): 47% | % Lowering of dulcitol accumulation In Vivo, % L (lens) (galactosemic rats; 10 mg/kg): 13% | % Lowering of dulcitol accumulation In Vivo, % N (sciatic nerve) (galactosemic rats; 10 mg/kg, sciatic nerve): 32%

CN1C(=O)c2c(Cl)cccc2C12CC(=O)NC2=O (stereo not drawn) [Example 126]
inhibition at 10 µM (aldose reductase; 10^-5 M): 85% | inhibition at 1 µM (aldose reductase): 65%

CN1C(=O)c2cc(Br)ccc2C12CC(=O)NC2=O (stereo not drawn) [Example 127]
inhibition at 10 µM (aldose reductase; 10^-5 M): 92% | inhibition at 1 µM (aldose reductase; 10^-6 M): 71%

COC(=O)c1ccc2c(c1)C1(CC(=O)NC1=O)N(C)C2=O (stereo not drawn) [Example 134]
inhibition at 10 µM (aldose reductase; 10^-5 M): 87% | inhibition at 1 µM (aldose reductase; 10^-6 M): 49%

Cc1cccc2c1C(=O)N(C)C21CC(=O)NC1=O (stereo not drawn) [Example 135, 2,4-dimethylspiro[1H-isoindole-1,3'-pyrrolidine]-2',3,5'(2H)-trione]
inhibition at 10 µM (aldose reductase; 10^-5 M): 84% | inhibition at 1 µM (aldose reductase; 10^-6 M): 59% | % Lowering of dulcitol accumulation In Vivo, % D (diaphragm) (galactosemic rats; 3 mg/kg): 37% | % Lowering of dulcitol accumulation In Vivo, % D (diaphragm) (galactosemic rats; 6 mg/kg): 57% | % Lowering of dulcitol accumulation In Vivo, % N (sciatic nerve) (galactosemic rats; 6 mg/kg, sciatic nerve): 50% | % Lowering of dulcitol accumulation In Vivo, % D (diaphragm) (galactosemic rats; 10 mg/kg): 69% | % Lowering of dulcitol accumulation In Vivo, % L (lens) (galactosemic rats; 10 mg/kg): 29% | % Lowering of dulcitol accumulation In Vivo, % N (sciatic nerve) (galactosemic rats; 10 mg/kg, sciatic nerve): 63%

O=C1NC(=O)[C@@]2(CCOc3ccc(F)cc32)N1 [Sorbinil, [(4S)2,3-dihydro-6-fluorospiro[4H1-benzopyran-4,4imidazoli-dine2',5dione, reference compound]
inhibition at 10 µM (aldose reductase; 10^-5 M): 83% | inhibition at 1 µM (aldose reductase; 10^-6 M): 45% | % Lowering of dulcitol accumulation In Vivo, % D (diaphragm) (galactosemic rats; 4 mg/kg): 69% | % Lowering of dulcitol accumulation In Vivo, % L (lens) (galactosemic rats; 4 mg/kg): 46% | % Lowering of dulcitol accumulation In Vivo, % N (sciatic nerve) (galactosemic rats; 4 mg/kg, sciatic nerve): 55%

CN1C2(CC(=O)NC2=O)c2ccccc2S1(=O)=O (stereo not drawn) [Example 101, 2,3-Dihydro-2-methylspiro[benzisothiazole-3,3'-pyrrolidine]-2',5'-dione 1,1-Dioxide]
inhibition at 10 µM (aldose reductase; 10^-5 M): 40% | inhibition at 1 µM (aldose reductase; 10^-6 M): 6%

COc1ccc2c(C(=S)N(C)CC(=O)O)cccc2c1C(F)(F)F [Tolrestat, reference compound]
% Lowering of dulcitol accumulation In Vivo, % D (diaphragm) (galactosemic rats; 3 mg/kg): 80% | % Lowering of dulcitol accumulation In Vivo, % N (sciatic nerve) (galactosemic rats; 3 mg/kg, sciatic nerve): 30%

CSc1ccc2c(c1)C(=O)N(C)C21CC(=O)NC1=O (stereo not drawn) [Example 130]
inhibition at 10 µM (aldose reductase; 10^-5 M): 87% | inhibition at 1 µM (aldose reductase; 10^-6 M): 60%
